Reference: patent EP4737445A1, “NOVEL SATURATED HETEROCYCLE-SUBSTITUTED HETEROARYL-CARBONOHYDRAZONOYL DICYANIDE COMPOUND AND USE THEREOF” (Korea Institute of Science and Technology, priority 2023, dated 2025)

Tests used:
CYP2C9 = target: T1, CYP2C9 (Homo sapiens, UniProt P11712); assay: CYP isoenzyme activity inhibition in human liver microsomes, CYP2C9; type: in vitro ADME; conditions: 10 µM compound; human liver microsomes 0.25 mg/mL; relative to control without compound
T1 construct: human liver microsomes (0.25 mg/mL); from tissue; host or cells: human liver microsomes
Experimental: (§1) The CYP isoenzyme activity inhibitory effect by the compounds prepared according to Examples 1 to 46 was confirmed. Specifically, human liver microsomes (0.25 mg/mL), 0.1 M phosphate buffer solution (pH 7.4), a substrate drug cocktail of five drug metabolizing enzymes (Phenacetin 50 µM, Diclofenac 10 µM, S-mephenytoin 100 µM, Dextromethorphan 5 µM, and Midazolam 2.5 µM), and the compounds were added at concentrations of 0 or 10 µM, respectively, and pre-incubated at 37°C for 5 minutes, and then NADPH generation system solution was added and incubated at 37°C for an additional 15 minutes. Thereafter, an acetonitrile solution containing an internal standard (Terfenadine) was added to terminate the reaction, and after centrifugation for 5 minutes (14,000 rpm, 4°C), the supernatant was injected into an LC-MS/MS system to simultaneously analyze the metabolites of the substrate drugs, thereby evaluating the drug metabolizing enzyme inhibitory activity.
(§2) The metabolites of each CYP isoenzyme marker drug generated through the reaction were analyzed using a Shimadzu Nexera XR system and TSQ vantage (Thermo). A Kinetex C18 (2.1 × 100 mm, 2.6 µm, particle size; Phenomenex, USA) was used as the HPLC column, and (A) distilled water containing 0.1% formic acid and (B) acetonitrile containing 0.1% formic acid were used as mobile phases, and a gradient program as shown in Table 6 below was applied.
(§3) The generated metabolites were quantified using MRM (Multiple Reaction Monitoring) quantitative mode, and Xcalibur (version 1.6.1) was used for data analysis. To show the CYP isoenzyme activity inhibitory effect of the novel compounds prepared according to the Examples of the disclosure, the % activity of CYP isoenzymes relative to the control group without compound addition is shown in Table 6 below. Additionally, to confirm the difference in effect according to substituents, Comparative Compounds 1 and 5, which are two compounds that share a similar parent nucleus structure with Compounds 1 to 46 of the disclosure while Cy is substituted with aromatic heteroaryl instead of saturated heterocyclyl, were selected as comparative compounds and their activities are shown together.

Tau = target: T2, Tau (Homo sapiens, UniProt P10636); assay: Tau aggregation inhibition in Tau-BiFC cell model (Forskolin-induced); type: cell-based
T2 construct: BiFC fluorescent-protein fragments (two complementary halves on two tau copies); expressed in transfected cells
Experimental: (§4) To screen for new tau aggregation inhibitors, a Tau-BiFC cell model that facilitates observation of tau oligomer formation in living cells was used. Tau-BiFC cells were dispensed into a 384-well plate, and the next day, the compounds prepared according to Examples 1 to 46 were treated at concentrations of 1, 3, and 10 µM, respectively, together with Forskolin (treatment concentration 30 µM), which is a compound that induces tau aggregation by activating the tau phosphorylation enzyme PKA. After 48 hours, nuclei within cells were stained using Hoechst (treatment concentration 2 µg/mL), and BiFC fluorescence intensity was automatically quantified using Operetta (Perkin Elmer) to count the stained nuclei in each well from the entire plate. The group treated only with Forskolin, which induces tau aggregation, was set as the reference point with 100% tau aggregation state, and the effect was confirmed by the formula "BiFC fluorescence intensity by the compounds synthesized according to the Examples of the disclosure/(fluorescence intensity of the control group treated only with Forskolin that induces tau aggregation - fluorescence intensity of the untreated control group) × 100". In addition, the degree of cytotoxicity induced by the newly synthesized compounds was also calculated using the formula "(number of stained nuclei in the compound-treated group/number of stained nuclei in the Forskolin-treated group) × 100", with the group treated only with Forskolin as the reference point at 100% viability. From the treatment results, substances that inhibit intracellular tau aggregation were identified through screening from a series of candidates based on the criteria of 70% or more tau aggregation inhibition and 100% cell viability at a compound treatment concentration of 10 µM.
(§5) To confirm the tau aggregation inhibitory effect according to the concentration of the compounds screened in Experimental Example 1, the screened compounds were treated to Tau-BiFC cells at concentrations of 0.03, 0.1, 0.3, 1, 3, 10, and 30 µM, respectively, together with Forskolin (treatment concentration 30 µM), which is a tau aggregation-inducing substance. After 48 hours, cell images were examined to analyze the tau aggregation reaction and degree of cytotoxicity. The IC50 and toxicity of the compounds were analyzed by nonlinear regression analysis using Prism software (GraphPad). The calculated results for representative compounds are shown in Table 3 below: Tau aggregation inhibitory effect and cell viability of novel compounds.

Tau-BiFC cells = assay: Cell viability (stained nuclei count) in Tau-BiFC cells; type: cell-based; conditions: @10 µM; Tau-BiFC cell line; Forskolin-only group = 100%
Experimental: as §4, §5

CYP2C19 = target: T3, CYP2C19 (Homo sapiens, UniProt P33261); assay: CYP isoenzyme activity inhibition in human liver microsomes, CYP2C19; type: in vitro ADME; conditions: 10 µM compound; human liver microsomes 0.25 mg/mL; relative to control without compound
T3 construct: human liver microsomes (0.25 mg/mL); from tissue; host or cells: human liver microsomes
Experimental: as §1, §2, §3

CYP1A2 = target: T4, CYP1A2 (Homo sapiens, UniProt P05177); assay: CYP isoenzyme activity inhibition in human liver microsomes, CYP1A2; type: in vitro ADME; conditions: 10 µM compound; human liver microsomes 0.25 mg/mL; relative to control without compound
T4 construct: human liver microsomes (0.25 mg/mL); from tissue; host or cells: human liver microsomes
T4 sequence (P05177 1-516): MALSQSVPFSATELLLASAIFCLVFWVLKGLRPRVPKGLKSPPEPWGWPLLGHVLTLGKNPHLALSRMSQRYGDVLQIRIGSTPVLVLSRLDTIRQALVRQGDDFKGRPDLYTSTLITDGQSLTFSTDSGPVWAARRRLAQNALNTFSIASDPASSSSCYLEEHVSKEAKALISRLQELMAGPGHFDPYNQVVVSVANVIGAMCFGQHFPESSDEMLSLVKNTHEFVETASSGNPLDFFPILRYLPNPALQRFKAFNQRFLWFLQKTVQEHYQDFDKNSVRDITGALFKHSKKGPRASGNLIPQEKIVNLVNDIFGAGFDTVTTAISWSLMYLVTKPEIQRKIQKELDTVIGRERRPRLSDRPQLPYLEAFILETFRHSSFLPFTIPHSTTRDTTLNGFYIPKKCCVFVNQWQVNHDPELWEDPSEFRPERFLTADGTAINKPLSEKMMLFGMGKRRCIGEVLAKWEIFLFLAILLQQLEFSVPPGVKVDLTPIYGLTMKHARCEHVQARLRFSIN
Experimental: as §1, §2, §3

CYP2D6 = target: T5, CYP2D6 (Homo sapiens, UniProt P10635); assay: CYP isoenzyme activity inhibition in human liver microsomes, CYP2D6; type: in vitro ADME; conditions: 10 µM compound; human liver microsomes 0.25 mg/mL; relative to control without compound
T5 construct: human liver microsomes (0.25 mg/mL); from tissue; host or cells: human liver microsomes
Experimental: as §1, §2, §3

CYP3A4 = target: T6, CYP3A4 (Homo sapiens, UniProt P08684); assay: CYP isoenzyme activity inhibition in human liver microsomes, CYP3A4; type: in vitro ADME; conditions: 10 µM compound; human liver microsomes 0.25 mg/mL; relative to control without compound
T6 construct: human liver microsomes (0.25 mg/mL); from tissue; host or cells: human liver microsomes
Experimental: as §1, §2, §3

TDP-43 BiFC cells = assay: Cell viability (stained nuclei count) in TDP-43-BiFC cells; type: cell-based; conditions: Forskolin-only group = 100%
Experimental: (§6) To screen for new TDP-43 aggregation inhibitors, a TDP-43-BiFC cell model that facilitates observation of TDP-43 aggregate formation in living cells was used. Specifically, TDP-43-BiFC cells were dispensed into a 384-well plate, and the next day, the compounds prepared according to Examples 1 to 46 were treated at concentrations of 3 and 10 µM, respectively, together with Forskolin (treatment concentration 30 µM), which is a compound that induces TDP-43 aggregation by activating the phosphorylation enzyme PKA. After 48 hours, nuclei within cells were stained using Hoechst (treatment concentration 1 µg/mL), and BiFC fluorescence intensity was automatically quantified using Operetta (PerkinElmer) to count the stained nuclei in each well from the entire plate. The group treated only with Forskolin, which induces TDP-43 aggregation, was set as the reference point with 100% TDP-43 aggregation state, and the effect was confirmed by the formula "(BiFC fluorescence intensity by the compounds synthesized according to the Examples of the disclosure - fluorescence intensity of the untreated control group)/(fluorescence intensity of the control group treated only with Forskolin that induces TDP-43 aggregation - fluorescence intensity of the untreated control group) × 100". In addition, the degree of cytotoxicity induced by the newly synthesized compounds was also calculated using the formula "(number of stained nuclei in the compound-treated group/number of stained nuclei in the Forskolin-treated group) × 100", with the group treated only with Forskolin as the reference point at 100% viability. From the treatment results, substances that inhibit intracellular TDP-43 aggregation were identified through screening from a series of candidates based on the criteria of 80% or more TDP-43 aggregation inhibition and 60% cell viability at a compound treatment concentration of 3 µM.
(§7) Furthermore, to confirm the TDP-43 aggregation inhibitory effect according to the concentration of the compounds screened in Experimental Example 3, the screened compounds were treated to […] at concentrations of 0.003, 0.01, 0.03, 0.1, 0.3, 1, 3, and 10 µM, respectively, together with Forskolin (treatment concentration 30 µM), which is a TDP-43 aggregation-inducing substance. After 48 hours, cell images were examined to analyze the TDP-43 aggregation reaction and degree of cytotoxicity. The IC50 and toxicity of the compounds were analyzed by nonlinear regression analysis using Prism software (GraphPad). The calculated results for representative compounds are shown in Table 4 below: TDP-43 protein aggregation inhibitory effect and cell viability of novel compounds.

[1] = Liver microsomal stability, mouse; type: in vitro ADME; conditions: 1 µM compound; 0.5 mg/mL microsomes; NADPH; 30 minutes at 37°C
Experimental: (§8) Liver microsomal stability by the compounds prepared according to Examples 1 to 46 was confirmed. Specifically, four types of liver microsomes (human, dog, rat, and mouse each at 0.5 mg/mL), 0.1 M phosphate buffer solution (pH 7.4), and the compounds at 1 µM concentration were added and pre-incubated at 37°C for 5 minutes, and then NADPH generation system solution was added and incubated at 37°C for an additional 30 minutes. Thereafter, an acetonitrile solution containing an internal standard (chloropropamide) was added to terminate the reaction, and after centrifugation for 5 minutes (14,000 rpm, 4°C), the supernatant was injected into an LC-MS/MS system to analyze the substrate drug, thereby evaluating the metabolic stability of 8 compounds.
(§9) The amount of remaining substrate through the reaction was analyzed using a Shimadzu Nexera XR system and TSQ vantage (Thermo). A Kinetex XB-C18 (2.1 × 100 mm, 2.6 µm, particle size; Phenomenex, USA) was used as the HPLC column, and (A) distilled water containing 0.1% formic acid and (B) acetonitrile containing 0.1% formic acid were used as mobile phases. Analyst software (version 1.6.3) and Xcalibur (version 1.6.1) were used for data analysis. The calculated results are shown in Table 5 below: Liver microsomal stability data of novel compounds from […] (human, rat, and mouse).

[2] = Liver microsomal stability, human; type: in vitro ADME; conditions: 1 µM compound; 0.5 mg/mL microsomes; NADPH; 30 minutes at 37°C
Experimental: as §8, §9

TDP-43 protein = target: T7, TDP-43 protein (Homo sapiens, UniProt Q13148); assay: TDP-43 aggregation inhibition in TDP-43-BiFC cell model (Forskolin-induced); type: cell-based; conditions: read-out: TDP-43 protein aggregation inhibitory effect: Aggregation inhibitory effect (%) (@3 uM)
T7 construct: BiFC fluorescent-protein fragments (two complementary halves); expressed in transfected cells
Experimental: as §6, §7

[3] = Liver microsomal stability, rat; type: in vitro ADME; conditions: 1 µM compound; 0.5 mg/mL microsomes; NADPH; 30 minutes at 37°C
Experimental: as §8, §9

T3 sequence (P33261 whole entry): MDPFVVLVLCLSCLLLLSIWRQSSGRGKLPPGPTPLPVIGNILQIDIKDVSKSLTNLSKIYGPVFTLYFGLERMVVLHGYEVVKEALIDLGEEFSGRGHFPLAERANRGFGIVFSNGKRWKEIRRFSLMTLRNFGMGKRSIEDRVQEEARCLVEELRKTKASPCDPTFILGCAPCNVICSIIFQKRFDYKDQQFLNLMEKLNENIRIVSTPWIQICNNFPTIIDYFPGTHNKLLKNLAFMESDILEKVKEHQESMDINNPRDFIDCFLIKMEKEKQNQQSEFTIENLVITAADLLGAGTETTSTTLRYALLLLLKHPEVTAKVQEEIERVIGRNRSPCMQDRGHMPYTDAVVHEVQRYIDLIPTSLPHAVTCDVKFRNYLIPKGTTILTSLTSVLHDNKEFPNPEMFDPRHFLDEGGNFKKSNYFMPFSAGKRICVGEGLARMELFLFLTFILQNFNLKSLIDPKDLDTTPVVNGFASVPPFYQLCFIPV
T5 sequence (P10635 whole entry): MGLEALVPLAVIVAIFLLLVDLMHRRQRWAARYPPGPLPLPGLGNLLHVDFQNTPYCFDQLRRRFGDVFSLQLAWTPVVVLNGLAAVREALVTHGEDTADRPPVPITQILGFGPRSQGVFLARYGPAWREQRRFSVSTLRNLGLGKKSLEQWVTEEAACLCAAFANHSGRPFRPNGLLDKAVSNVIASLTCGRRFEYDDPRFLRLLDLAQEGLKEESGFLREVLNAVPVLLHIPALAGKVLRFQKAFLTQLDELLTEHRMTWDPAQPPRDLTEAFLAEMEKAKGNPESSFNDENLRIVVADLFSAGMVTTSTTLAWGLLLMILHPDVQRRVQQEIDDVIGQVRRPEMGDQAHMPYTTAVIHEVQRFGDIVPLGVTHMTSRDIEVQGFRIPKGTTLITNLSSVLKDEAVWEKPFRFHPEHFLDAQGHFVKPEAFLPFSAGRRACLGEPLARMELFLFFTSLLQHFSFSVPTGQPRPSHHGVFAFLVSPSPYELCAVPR
T6 sequence (P08684 whole entry): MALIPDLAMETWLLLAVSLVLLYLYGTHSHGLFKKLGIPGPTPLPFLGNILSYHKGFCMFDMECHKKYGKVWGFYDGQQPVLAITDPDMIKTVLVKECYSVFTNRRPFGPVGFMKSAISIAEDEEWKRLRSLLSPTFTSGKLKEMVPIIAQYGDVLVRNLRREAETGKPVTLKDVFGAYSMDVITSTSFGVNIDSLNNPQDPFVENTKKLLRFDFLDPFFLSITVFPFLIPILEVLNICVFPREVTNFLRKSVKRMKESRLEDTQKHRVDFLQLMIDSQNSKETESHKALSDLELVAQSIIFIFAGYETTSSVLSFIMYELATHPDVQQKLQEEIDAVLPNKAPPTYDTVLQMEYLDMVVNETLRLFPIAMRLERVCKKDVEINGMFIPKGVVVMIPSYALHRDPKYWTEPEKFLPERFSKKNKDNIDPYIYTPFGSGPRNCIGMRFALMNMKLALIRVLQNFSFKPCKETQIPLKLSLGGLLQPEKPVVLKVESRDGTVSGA
T2 sequence (P10636 1-441 isoform P10636-8): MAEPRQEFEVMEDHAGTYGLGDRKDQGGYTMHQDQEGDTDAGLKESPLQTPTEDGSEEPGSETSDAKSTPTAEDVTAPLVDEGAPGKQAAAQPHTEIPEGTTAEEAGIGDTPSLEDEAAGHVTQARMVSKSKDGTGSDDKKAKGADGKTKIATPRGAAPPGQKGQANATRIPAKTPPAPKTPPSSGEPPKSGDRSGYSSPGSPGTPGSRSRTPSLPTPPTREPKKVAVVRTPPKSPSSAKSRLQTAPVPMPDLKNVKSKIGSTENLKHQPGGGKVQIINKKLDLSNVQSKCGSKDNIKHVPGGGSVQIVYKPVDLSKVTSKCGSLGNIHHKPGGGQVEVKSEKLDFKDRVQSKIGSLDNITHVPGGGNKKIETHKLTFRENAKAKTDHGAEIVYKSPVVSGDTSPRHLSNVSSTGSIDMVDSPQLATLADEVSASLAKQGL
T7 sequence (Q13148 whole entry, the tested form may be a part): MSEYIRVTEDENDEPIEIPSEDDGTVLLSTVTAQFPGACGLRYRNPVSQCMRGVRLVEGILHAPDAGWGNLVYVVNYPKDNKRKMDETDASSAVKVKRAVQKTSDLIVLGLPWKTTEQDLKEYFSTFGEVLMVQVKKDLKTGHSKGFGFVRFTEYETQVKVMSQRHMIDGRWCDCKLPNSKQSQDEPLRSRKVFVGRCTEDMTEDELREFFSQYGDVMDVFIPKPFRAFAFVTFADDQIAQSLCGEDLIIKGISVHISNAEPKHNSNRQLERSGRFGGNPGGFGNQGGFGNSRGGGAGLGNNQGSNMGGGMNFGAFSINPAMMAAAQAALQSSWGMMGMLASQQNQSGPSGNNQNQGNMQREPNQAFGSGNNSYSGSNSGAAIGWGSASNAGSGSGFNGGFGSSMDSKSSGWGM
T1 sequence (P11712 whole entry): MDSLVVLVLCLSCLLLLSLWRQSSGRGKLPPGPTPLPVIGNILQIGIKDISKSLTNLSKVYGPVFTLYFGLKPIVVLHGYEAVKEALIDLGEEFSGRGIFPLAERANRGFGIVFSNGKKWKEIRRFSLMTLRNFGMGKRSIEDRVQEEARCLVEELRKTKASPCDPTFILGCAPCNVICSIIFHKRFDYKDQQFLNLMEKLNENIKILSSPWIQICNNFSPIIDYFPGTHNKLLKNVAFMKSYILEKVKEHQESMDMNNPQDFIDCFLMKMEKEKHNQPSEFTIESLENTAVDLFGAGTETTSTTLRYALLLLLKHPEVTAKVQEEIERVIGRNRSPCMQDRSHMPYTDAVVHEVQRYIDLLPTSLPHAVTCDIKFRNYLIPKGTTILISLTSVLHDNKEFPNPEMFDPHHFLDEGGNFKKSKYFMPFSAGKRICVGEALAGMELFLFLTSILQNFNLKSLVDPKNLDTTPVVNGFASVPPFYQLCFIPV

Row | SMILES | CYP2C9 (% activity) (CYP2C9) | IC50 (Tau) | Cell viability (% @10µM) (Tau-BiFC cells) | CYP2C19 (% activity) (CYP2C19) | CYP1A2 (% activity) (CYP1A2) | CYP2D6 (% activity) (CYP2D6) | CYP3A4 (% activity) (CYP3A4) | Cell viability (%) (@ 3 uM) (TDP-43 BiFC cells) | Mouse microsomes (% remaining) [1] | Human microsomes (% remaining) [2] | inhibition at 3 µM (TDP-43 protein) | Rat microsomes (% remaining) [3]
1 | N#CC(C#N)=NNc1ccc2nc(N3CCOCC3)[nH]c2c1 [Compound 7, (2-morpholino-1H-benzo[d]imidazol-6-yl)carbonohydrazonoyl dicyanide] | 67.8 % activity | 64 nM | 100% | 95.1 % activity | 57.6 % activity | > 100 % activity | 83.1 % activity | – | – | – | – | –
2 | Cc1nc2ccc(NN=C(C#N)C#N)cc2s1 [Comparative compound 1, N-(2-methylbenzo[d]thiazol-6-yl)carbonohydrazonoyl dicyanide, reference compound] | – | 500 nM | 100% | – | – | – | – | 79.0% | 1.2 % remaining | 37.0 % remaining | 72.9% | 1.2 % remaining
3 | Cc1ccc(-c2nc3ccc(NN=C(C#N)C#N)cc3s2)cn1 [Comparative compound 6, N-(2-(6-methylpyridin-3-yl)benzo[d]thiazol-6-yl) carbonohydrazonoyl dicyanide, reference compound] | 32.0 % activity | – | – | 81.2 % activity | 80.2 % activity | 91.8 % activity | 81.7 % activity | 60.8% | >100 % remaining | 84.7 % remaining | 69.5% | 83.9 % remaining
